Laboratory results: ChEMBL document CHEMBL1201862, “PubChem BioAssay data set” (2004)
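Grown in 96-well plates, cells were treated for 48 hours with each compound at five concentrations. Insufficient inhibition: endpoint recorded as highest concentration tested. The concentration for 50% growth inhibition is given as GI50.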 The source made the active and inactive calls. Cut-off read from the data, not from the text of the source: active = GI50 up to about 1.1 µM and inactive = higher.

Columns and labels:
Assay in all cases: DTP human tumour cell line panel, 48 h
[1] = test system: NCI/ADR-RES
[2] = test system: Malme-3M
[3] = test system: OVCAR-4
[4] = test system: HOP-62
[5] = test system: NCI-H460
[6] = test system: SNB-19
[7] = test system: SF-295
[8] = test system: PC-3
[9] = test system: KM12
[10] = test system: HCT-116
[11] = test system: K562
[12] = test system: MCF7
[13] = test system: NCI-H522
[14] = test system: EKVX
[15] = test system: LOX IMVI
[16] = test system: 786-0
[17] = test system: BT-549
[18] = test system: HOP-92
[19] = test system: A498
[20] = test system: SK-MEL-2

| Structure (SMILES) | GI50 [1] | GI50 [2] | GI50 [3] | GI50 [4] | GI50 [5] | GI50 [6] | GI50 [7] | GI50 [8] | GI50 [9] | GI50 [10] | GI50 [11] | GI50 [12] | GI50 [13] | GI50 [14] | GI50 [15] | GI50 [16] | GI50 [17] | GI50 [18] | GI50 [19] | GI50 [20] |
| --- | --- | --- | --- | --- | --- | --- | --- | --- | --- | --- | --- | --- | --- | --- | --- | --- | --- | --- | --- | --- |
| O=c1c2ccccc2nc(N/N=C/c2ccc([N+](=O)[O-])cc2)n1-c1ccccc1 | 13.4 µM (inactive) | 35.9 µM (inactive) | 6.1 µM (inactive) | 13.3 µM (inactive) | > 100 µM (inactive) | 20.7 µM (inactive) | 4.35 µM (inactive) | 17.3 µM (inactive) | 36.3 µM (inactive) | 5.05 µM (inactive) | 52.1 µM (inactive) | 20.9 µM (inactive) | 31.4 µM (inactive) | 20 µM (inactive) | 3.08 µM (inactive) | 5.37 µM (inactive) | 18 µM (inactive) |  |  |  |
| O=c1[nH]c(=O)n(C2CC(O)C(CO)O2)cc1/N=N/NCCc1ccccc1 (stereo not drawn) | > 100 µM (inactive) | > 100 µM (inactive) | > 100 µM (inactive) | > 100 µM (inactive) | > 100 µM (inactive) | > 100 µM (inactive) | > 100 µM (inactive) | > 100 µM (inactive) | > 100 µM (inactive) | > 100 µM (inactive) | > 100 µM (inactive) | > 100 µM (inactive) | > 100 µM (inactive) | > 100 µM (inactive) | > 100 µM (inactive) | > 100 µM (inactive) | > 10 µM (inactive) |  |  |  |
| Cc1c(-c2ccccn2)ccc2ccccc12 | 45.9 µM (inactive) | 69.7 µM (inactive) |  | > 100 µM (inactive) | 42.4 µM (inactive) | > 100 µM (inactive) | 83.8 µM (inactive) | 47.3 µM (inactive) | 82.8 µM (inactive) | 43.4 µM (inactive) | 71 µM (inactive) | 88.7 µM (inactive) |  | 52.6 µM (inactive) | 93.3 µM (inactive) | 77.3 µM (inactive) |  | 23 µM (inactive) | > 100 µM (inactive) |  |
| CC(=O)/C(=C/n1ccc(=O)[nH]c1=S)C(=O)Nc1ccccc1C | > 100 µM (inactive) |  | > 100 µM (inactive) | > 100 µM (inactive) | > 100 µM (inactive) | > 100 µM (inactive) | > 100 µM (inactive) |  | > 100 µM (inactive) | > 100 µM (inactive) |  | > 100 µM (inactive) |  | > 100 µM (inactive) | > 100 µM (inactive) | > 100 µM (inactive) | > 100 µM (inactive) | > 100 µM (inactive) | > 100 µM (inactive) | > 100 µM (inactive) |
| N=C(N)N/N=C/c1cc(Cl)cc(Cl)c1O | 35.5 µM (inactive) | 42.3 µM (inactive) | 46.9 µM (inactive) | > 100 µM (inactive) | 69.5 µM (inactive) | 94.2 µM (inactive) | 58.1 µM (inactive) | 36.7 µM (inactive) | 45.1 µM (inactive) | 57 µM (inactive) | 48 µM (inactive) | 44.6 µM (inactive) | 56.5 µM (inactive) | 38.9 µM (inactive) | 51.4 µM (inactive) | 76.7 µM (inactive) |  | 65 µM (inactive) | 51.1 µM (inactive) | 34.1 µM (inactive) |
| COc1cccc2c1C(=O)c1c(O)c3c(c(O)c1C2=O)C[C@@](O)(C(=O)CO)C[C@@H]3OC1CC(N(C)C)C(O)C(C)O1 (stereo partly drawn) |  | < 0.0142 µM (active) | < 0.0189 µM (active) | 0.0272 µM (active) | < 0.01 µM (active) | 0.0254 µM (active) | < 0.01 µM (active) | < 0.01 µM (active) | < 0.016 µM (active) | < 0.01 µM (active) | 0.0583 µM (active) |  | < 0.011 µM (active) | 0.0415 µM (active) | < 0.01 µM (active) | < 0.0197 µM (active) | 0.0537 µM (active) | 0.031 µM (active) | < 0.0116 µM (active) | < 0.0212 µM (active) |
| NS(=O)(=O)c1nnc(NC(=O)/C=C/C(=O)O)s1 | > 100 µM (inactive) | > 100 µM (inactive) | > 100 µM (inactive) | > 100 µM (inactive) | > 100 µM (inactive) | > 100 µM (inactive) | > 100 µM (inactive) |  | > 100 µM (inactive) | > 100 µM (inactive) | > 100 µM (inactive) | > 100 µM (inactive) | > 100 µM (inactive) | > 100 µM (inactive) | > 100 µM (inactive) | > 100 µM (inactive) | > 100 µM (inactive) | > 100 µM (inactive) | > 100 µM (inactive) | > 100 µM (inactive) |
| C1CSCCCSCCSCCCSC1 |  |  | > 100 µM (inactive) | > 100 µM (inactive) | > 100 µM (inactive) | > 100 µM (inactive) | > 100 µM (inactive) | > 100 µM (inactive) |  | > 100 µM (inactive) | > 100 µM (inactive) | > 100 µM (inactive) | 67.9 µM (inactive) | > 100 µM (inactive) | > 100 µM (inactive) | > 100 µM (inactive) | > 100 µM (inactive) | > 100 µM (inactive) | > 100 µM (inactive) | > 100 µM (inactive) |
| O=NC1C(Cl)C2CC1C1C(Br)C(Br)CC21 (stereo not drawn) | > 100 µM (inactive) | > 100 µM (inactive) | > 100 µM (inactive) | > 100 µM (inactive) | > 100 µM (inactive) | > 100 µM (inactive) | > 100 µM (inactive) | > 100 µM (inactive) | > 100 µM (inactive) | > 100 µM (inactive) | > 100 µM (inactive) | > 100 µM (inactive) | > 100 µM (inactive) | > 100 µM (inactive) | > 100 µM (inactive) | > 100 µM (inactive) |  | > 100 µM (inactive) | > 100 µM (inactive) | > 100 µM (inactive) |
| Fc1cc(C2=Nn3c(COc4ccccc4Cl)nnc3S/C2=C\c2ccc(Cl)cc2)c(Cl)cc1Cl | 4.24 µM (inactive) |  | 9.84 µM (inactive) | 15.8 µM (inactive) | 3.38 µM (inactive) |  | 4.28 µM (inactive) | 12.3 µM (inactive) | 3.21 µM (inactive) | 2.74 µM (inactive) | 3.77 µM (inactive) | 5.14 µM (inactive) | 5.5 µM (inactive) | 10.1 µM (inactive) | 3.92 µM (inactive) | 4.23 µM (inactive) |  | 1.36 µM (inactive) | 14.2 µM (inactive) | 13.3 µM (inactive) |
| O=C(/C=C/c1cccs1)c1ccccc1Cl | 15 µM (inactive) | 12.2 µM (inactive) | 6.31 µM (inactive) | 15.8 µM (inactive) | 15.8 µM (inactive) | 15.6 µM (inactive) | 17.8 µM (inactive) | 15.4 µM (inactive) | 7.31 µM (inactive) | 13 µM (inactive) | 21.3 µM (inactive) | 4.65 µM (inactive) | 2.77 µM (inactive) | 15.1 µM (inactive) | 12.4 µM (inactive) | 14.1 µM (inactive) |  | 25.5 µM (inactive) | 10.2 µM (inactive) | 20.1 µM (inactive) |
| Cc1ccc(/N=N/N(C)C(C)C(O)Cc2ccccc2)cc1 (stereo not drawn) | 40.4 µM (inactive) | > 100 µM (inactive) | > 100 µM (inactive) | > 100 µM (inactive) | 36.5 µM (inactive) | 82.2 µM (inactive) | 38.3 µM (inactive) | 20.3 µM (inactive) | 25.2 µM (inactive) | 49.3 µM (inactive) | 39.3 µM (inactive) | 47.9 µM (inactive) |  | 62.2 µM (inactive) |  | 59.4 µM (inactive) | 41 µM (inactive) |  |  | 37.8 µM (inactive) |
| CNC1=Nc2ccccc2C(=S)N2CSC[C@@H]12 | > 100 µM (inactive) | > 100 µM (inactive) | > 100 µM (inactive) | > 100 µM (inactive) | > 100 µM (inactive) | > 100 µM (inactive) | > 100 µM (inactive) | > 100 µM (inactive) | > 100 µM (inactive) | > 100 µM (inactive) | > 100 µM (inactive) | > 100 µM (inactive) | > 100 µM (inactive) |  |  | > 100 µM (inactive) |  | 50.9 µM (inactive) | > 100 µM (inactive) | > 100 µM (inactive) |
| CN(/N=C/c1cccs1)c1ccc([N+](=O)[O-])cc1[N+](=O)[O-] | > 100 µM (inactive) |  | > 100 µM (inactive) | > 100 µM (inactive) | > 100 µM (inactive) | > 100 µM (inactive) | > 100 µM (inactive) | > 100 µM (inactive) | > 100 µM (inactive) | > 100 µM (inactive) | > 100 µM (inactive) | > 100 µM (inactive) | > 100 µM (inactive) | > 100 µM (inactive) |  | > 100 µM (inactive) | > 100 µM (inactive) |  |  |  |
| C#CCn1c(=O)c2ccccc2n(CC#C)c1=O | > 10 µM (inactive) | > 10 µM (inactive) | > 10 µM (inactive) | > 10 µM (inactive) | > 10 µM (inactive) | > 10 µM (inactive) | > 10 µM (inactive) | > 10 µM (inactive) | > 10 µM (inactive) | > 10 µM (inactive) | > 10 µM (inactive) | > 10 µM (inactive) | > 10 µM (inactive) | > 10 µM (inactive) | > 10 µM (inactive) | > 10 µM (inactive) |  | > 10 µM (inactive) | > 10 µM (inactive) | > 10 µM (inactive) |
| CC(=O)OC1CC2CCC1(C)C2(C)C (stereo not drawn) | > 100 µM (inactive) | > 100 µM (inactive) | > 100 µM (inactive) | > 100 µM (inactive) | > 100 µM (inactive) | > 100 µM (inactive) | > 100 µM (inactive) | > 100 µM (inactive) | > 100 µM (inactive) | > 100 µM (inactive) | > 100 µM (inactive) | > 100 µM (inactive) | > 100 µM (inactive) |  | > 100 µM (inactive) | > 100 µM (inactive) |  |  | > 100 µM (inactive) | > 100 µM (inactive) |
